Reference: US20240327364A1, “THERAPEUTIC TARGETING OF GPR68 TO INDUCE FERROPTOSIS” (University Of Maryland, Baltimore, priority 2023, published 2024)

Experiments:
[1] = molecular target: T1, ABL1(H396P)-phosphorylated (Homo sapiens, UniProt P00519, H396P); experiment: KinomeScan; format: binding; conditions: read-out: % Control
T1 construct: purchased DiscoveRx

[2] = molecular target: T2, ABL2 (Homo sapiens, UniProt P42684); experiment: KinomeScan; format: binding; conditions: read-out: % Control
T2 construct: purchased DiscoveRx
T2 sequence (P42684 288-539 limits assumed): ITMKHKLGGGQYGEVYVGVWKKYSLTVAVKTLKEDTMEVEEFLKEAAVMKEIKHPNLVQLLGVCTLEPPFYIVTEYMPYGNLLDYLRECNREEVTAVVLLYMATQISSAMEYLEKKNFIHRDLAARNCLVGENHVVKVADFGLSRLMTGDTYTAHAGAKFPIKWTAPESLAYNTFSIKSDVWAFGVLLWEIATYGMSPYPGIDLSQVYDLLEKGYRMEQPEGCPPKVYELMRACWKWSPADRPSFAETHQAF

[3] = molecular target: T3, AKT1 (Homo sapiens, UniProt P31749); experiment: KinomeScan; format: binding; conditions: read-out: % Control
T3 construct: purchased DiscoveRx (Fremont, CA)

[4] = molecular target: T4, AMPK-alpha1 (Homo sapiens, UniProt Q13131); experiment: KinomeScan; format: binding; conditions: read-out: % Control
T4 construct: purchased DiscoveRx (Fremont, CA)

[5] = molecular target: T5, ASK2 (Homo sapiens, UniProt O95382); experiment: KinomeScan; format: binding; conditions: read-out: % Control
T5 construct: purchased DiscoveRx (Fremont, CA)

[6] = molecular target: T6, CDK2 (Homo sapiens, UniProt P24941); experiment: KinomeScan; format: binding; conditions: read-out: % Control
T6 construct: purchased DiscoveRx (KinomeScan service)

[7] = molecular target: CDKL1 (Homo sapiens, UniProt Q00532); experiment: KinomeScan; format: binding; conditions: read-out: % Control
[8] = molecular target: T7, DDR1 (Homo sapiens, UniProt Q08345); experiment: KinomeScan; format: binding; conditions: read-out: % Control
T7 construct: purchased DiscoveRx (Fremont, CA), KinomeScan service

[9] = molecular target: T8, EGFR(S752-1759del) (Homo sapiens, UniProt P00533, DEL752-759); experiment: KinomeScan; format: binding; conditions: read-out: % Control
T8 construct: purchased DiscoveRx (Fremont, CA)
T8 sequence (P00533 with tags, fused parts or gaps DEL752-759 limits assumed): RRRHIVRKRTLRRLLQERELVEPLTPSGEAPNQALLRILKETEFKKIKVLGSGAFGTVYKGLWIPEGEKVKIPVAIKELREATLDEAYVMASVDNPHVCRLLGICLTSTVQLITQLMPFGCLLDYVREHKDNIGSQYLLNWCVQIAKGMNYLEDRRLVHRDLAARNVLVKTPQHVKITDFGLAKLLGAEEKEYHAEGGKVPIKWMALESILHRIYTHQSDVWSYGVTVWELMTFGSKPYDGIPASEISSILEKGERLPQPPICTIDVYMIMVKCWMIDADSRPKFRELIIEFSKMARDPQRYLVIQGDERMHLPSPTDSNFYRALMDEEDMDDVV

[10] = molecular target: T9, FGFR2 (Homo sapiens, UniProt P21802); experiment: KinomeScan; format: binding; conditions: read-out: % Control
T9 construct: purchased DiscoveRx (Fremont, CA)
T9 sequence (P21802 22-821): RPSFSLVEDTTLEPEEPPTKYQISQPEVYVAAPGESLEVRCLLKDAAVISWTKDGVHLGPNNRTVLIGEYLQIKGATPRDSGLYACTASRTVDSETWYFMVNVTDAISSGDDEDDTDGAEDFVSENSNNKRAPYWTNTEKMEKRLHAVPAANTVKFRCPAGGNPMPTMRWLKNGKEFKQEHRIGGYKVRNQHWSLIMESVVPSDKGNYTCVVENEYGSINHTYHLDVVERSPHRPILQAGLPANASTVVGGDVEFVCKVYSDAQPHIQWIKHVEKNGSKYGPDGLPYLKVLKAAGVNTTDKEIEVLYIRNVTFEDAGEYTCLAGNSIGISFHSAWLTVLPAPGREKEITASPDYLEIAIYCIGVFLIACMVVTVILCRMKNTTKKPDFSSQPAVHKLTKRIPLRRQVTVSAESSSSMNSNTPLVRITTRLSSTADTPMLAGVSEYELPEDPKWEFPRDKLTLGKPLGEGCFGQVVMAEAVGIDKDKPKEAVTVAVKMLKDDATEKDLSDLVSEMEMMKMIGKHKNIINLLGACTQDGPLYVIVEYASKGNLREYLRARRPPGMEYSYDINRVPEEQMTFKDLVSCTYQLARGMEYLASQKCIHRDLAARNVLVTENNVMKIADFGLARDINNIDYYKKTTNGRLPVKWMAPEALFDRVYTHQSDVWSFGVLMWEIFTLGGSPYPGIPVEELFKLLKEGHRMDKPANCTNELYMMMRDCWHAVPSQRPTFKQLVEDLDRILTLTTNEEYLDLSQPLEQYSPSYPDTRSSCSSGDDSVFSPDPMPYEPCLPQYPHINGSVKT

[11] = molecular target: T10, MARK4 (Homo sapiens, UniProt Q96L34); experiment: KinomeScan; format: binding; conditions: read-out: % Control
T10 construct: purchased DiscoveRx (Fremont, CA)

[12] = molecular target: T11, PIK3C2G (Homo sapiens, UniProt O75747); experiment: KinomeScan; format: binding; conditions: read-out: % Control
T11 construct: purchased DiscoveRx (Fremont, CA)

[13] = molecular target: T12, PRKD3 (Homo sapiens, UniProt O94806); experiment: KinomeScan; format: binding; conditions: read-out: % Control
T12 construct: purchased DiscoveRx (Fremont, CA)
T12 sequence (O94806 whole entry): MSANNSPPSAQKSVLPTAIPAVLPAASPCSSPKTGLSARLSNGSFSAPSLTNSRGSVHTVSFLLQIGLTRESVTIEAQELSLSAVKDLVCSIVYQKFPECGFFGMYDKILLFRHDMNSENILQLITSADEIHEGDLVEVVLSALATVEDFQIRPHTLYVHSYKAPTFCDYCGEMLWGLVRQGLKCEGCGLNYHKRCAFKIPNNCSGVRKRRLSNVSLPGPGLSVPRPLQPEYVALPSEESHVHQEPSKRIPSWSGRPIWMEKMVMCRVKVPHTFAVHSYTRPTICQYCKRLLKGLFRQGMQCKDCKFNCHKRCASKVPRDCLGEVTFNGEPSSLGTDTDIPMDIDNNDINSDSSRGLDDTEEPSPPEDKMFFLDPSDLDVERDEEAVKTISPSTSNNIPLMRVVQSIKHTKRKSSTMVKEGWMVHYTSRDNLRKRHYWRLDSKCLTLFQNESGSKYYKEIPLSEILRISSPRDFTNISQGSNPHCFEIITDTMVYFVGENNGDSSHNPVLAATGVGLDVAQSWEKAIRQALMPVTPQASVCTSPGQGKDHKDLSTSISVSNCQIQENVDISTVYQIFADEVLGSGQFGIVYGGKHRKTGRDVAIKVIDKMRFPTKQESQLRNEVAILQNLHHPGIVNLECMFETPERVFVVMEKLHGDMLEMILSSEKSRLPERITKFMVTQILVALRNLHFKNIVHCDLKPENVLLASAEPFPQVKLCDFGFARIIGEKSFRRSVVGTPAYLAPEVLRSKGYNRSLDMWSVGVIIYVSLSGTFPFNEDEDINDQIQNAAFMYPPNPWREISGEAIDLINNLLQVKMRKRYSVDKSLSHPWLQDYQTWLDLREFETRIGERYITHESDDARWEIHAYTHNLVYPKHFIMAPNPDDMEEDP

[14] = molecular target: T13, RPS6KA5(Kin.Dom.1-N-terminal) (Homo sapiens, UniProt O75582); experiment: KinomeScan; format: binding; conditions: read-out: % Control
T13 construct: RPS6KA5(Kin.Dom.1-N-terminal); purchased DiscoveRx (Fremont, CA)
T13 sequence (O75582 49-318 limits assumed): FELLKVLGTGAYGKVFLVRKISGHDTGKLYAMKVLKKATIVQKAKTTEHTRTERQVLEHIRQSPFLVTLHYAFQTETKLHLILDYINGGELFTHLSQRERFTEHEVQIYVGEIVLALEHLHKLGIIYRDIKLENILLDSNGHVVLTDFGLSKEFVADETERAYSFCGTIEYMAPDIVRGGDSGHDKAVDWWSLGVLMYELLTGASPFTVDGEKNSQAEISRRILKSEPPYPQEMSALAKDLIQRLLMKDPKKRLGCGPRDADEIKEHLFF

[15] = molecular target: T14, SLK (Homo sapiens, UniProt Q9H2G2); experiment: KinomeScan; format: binding; conditions: read-out: % Control
T14 construct: purchased DiscoveRx (Fremont, CA)
T14 sequence (Q9H2G2 whole entry): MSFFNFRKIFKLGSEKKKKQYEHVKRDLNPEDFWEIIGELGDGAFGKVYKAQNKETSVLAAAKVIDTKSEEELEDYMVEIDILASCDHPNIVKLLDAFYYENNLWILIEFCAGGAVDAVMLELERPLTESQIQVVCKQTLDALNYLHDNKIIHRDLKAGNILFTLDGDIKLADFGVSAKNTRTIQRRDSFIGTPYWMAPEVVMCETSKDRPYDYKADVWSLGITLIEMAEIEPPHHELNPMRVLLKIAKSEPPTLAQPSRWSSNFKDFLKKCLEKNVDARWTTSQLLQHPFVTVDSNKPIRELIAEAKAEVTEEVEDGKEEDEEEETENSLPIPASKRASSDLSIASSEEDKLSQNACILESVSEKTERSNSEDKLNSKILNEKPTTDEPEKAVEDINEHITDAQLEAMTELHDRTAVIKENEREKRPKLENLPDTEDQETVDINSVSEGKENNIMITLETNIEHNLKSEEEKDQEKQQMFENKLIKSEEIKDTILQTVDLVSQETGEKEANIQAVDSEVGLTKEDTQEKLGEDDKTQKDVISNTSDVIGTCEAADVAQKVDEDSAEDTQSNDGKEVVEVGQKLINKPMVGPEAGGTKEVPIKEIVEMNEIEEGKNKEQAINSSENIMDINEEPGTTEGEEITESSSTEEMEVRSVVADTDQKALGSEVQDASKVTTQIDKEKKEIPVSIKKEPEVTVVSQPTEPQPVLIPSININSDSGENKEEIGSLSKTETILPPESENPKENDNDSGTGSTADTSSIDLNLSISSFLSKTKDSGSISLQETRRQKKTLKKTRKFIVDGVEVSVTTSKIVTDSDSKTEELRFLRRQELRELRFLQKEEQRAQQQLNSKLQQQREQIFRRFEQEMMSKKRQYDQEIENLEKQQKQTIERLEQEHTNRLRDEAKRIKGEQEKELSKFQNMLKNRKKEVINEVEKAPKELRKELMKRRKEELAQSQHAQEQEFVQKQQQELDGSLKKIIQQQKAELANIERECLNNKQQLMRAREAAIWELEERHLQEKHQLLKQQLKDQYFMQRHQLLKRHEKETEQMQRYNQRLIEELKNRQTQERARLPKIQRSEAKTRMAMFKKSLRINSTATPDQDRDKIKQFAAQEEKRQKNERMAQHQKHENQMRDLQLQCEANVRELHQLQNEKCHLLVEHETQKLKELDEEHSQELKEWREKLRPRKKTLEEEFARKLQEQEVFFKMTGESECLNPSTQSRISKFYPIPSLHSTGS

[16] = molecular target: T15, SRPK2 (Homo sapiens, UniProt P78362); experiment: KinomeScan; format: binding; conditions: read-out: % Control
T15 construct: purchased DiscoveRx (Fremont, CA)

[17] = molecular target: T16, TXK (Homo sapiens, UniProt P42681); experiment: KinomeScan; format: binding; conditions: read-out: % Control
T16 construct: purchased DiscoveRx

[18] = molecular target: T17, YSK1 (Homo sapiens, UniProt O00506); experiment: KinomeScan; format: binding; conditions: read-out: % Control
T17 construct: purchased DiscoveRx

[19] = molecular target: T18, APJ (Homo sapiens, UniProt P35414); experiment: GPCR Profiler; format: cell-based
T18 construct: host or cells: Chem-1 cells with promiscuous Gα15
T18 sequence (P35414 whole entry, species assumed): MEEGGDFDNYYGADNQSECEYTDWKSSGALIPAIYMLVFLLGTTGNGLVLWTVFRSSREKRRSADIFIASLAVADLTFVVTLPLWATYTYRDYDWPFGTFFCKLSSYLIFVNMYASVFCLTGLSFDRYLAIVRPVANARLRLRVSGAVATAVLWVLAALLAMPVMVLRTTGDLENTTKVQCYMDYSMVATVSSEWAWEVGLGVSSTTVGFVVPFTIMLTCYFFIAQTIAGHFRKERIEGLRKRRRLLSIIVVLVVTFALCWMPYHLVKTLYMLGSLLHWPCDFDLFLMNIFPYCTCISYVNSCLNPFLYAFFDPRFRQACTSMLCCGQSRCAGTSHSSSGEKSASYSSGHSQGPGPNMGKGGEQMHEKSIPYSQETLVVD

[20] = molecular target: T19, CRF1 (Homo sapiens, UniProt P34998); experiment: GPCR Profiler; format: cell-based
T19 construct: host or cells: Chem-1 cells with Gα15
T19 sequence (P34998 24-415): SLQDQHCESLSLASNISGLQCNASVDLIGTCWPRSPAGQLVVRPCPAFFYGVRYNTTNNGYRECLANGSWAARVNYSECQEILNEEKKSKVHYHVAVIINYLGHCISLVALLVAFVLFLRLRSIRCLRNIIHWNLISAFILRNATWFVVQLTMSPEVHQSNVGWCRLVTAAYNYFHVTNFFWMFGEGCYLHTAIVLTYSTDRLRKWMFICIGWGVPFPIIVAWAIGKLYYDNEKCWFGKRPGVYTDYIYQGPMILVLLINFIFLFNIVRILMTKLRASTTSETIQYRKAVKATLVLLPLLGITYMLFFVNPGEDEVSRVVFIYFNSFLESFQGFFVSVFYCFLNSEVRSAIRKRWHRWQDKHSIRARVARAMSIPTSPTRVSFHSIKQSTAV

[21] = molecular target: T20, NTR1 (Homo sapiens, UniProt P30989); experiment: GPCR Profiler; format: cell-based
T20 construct: host or cells: Chem-1 cells expressing Gα15
T20 sequence (P30989 whole entry, species assumed): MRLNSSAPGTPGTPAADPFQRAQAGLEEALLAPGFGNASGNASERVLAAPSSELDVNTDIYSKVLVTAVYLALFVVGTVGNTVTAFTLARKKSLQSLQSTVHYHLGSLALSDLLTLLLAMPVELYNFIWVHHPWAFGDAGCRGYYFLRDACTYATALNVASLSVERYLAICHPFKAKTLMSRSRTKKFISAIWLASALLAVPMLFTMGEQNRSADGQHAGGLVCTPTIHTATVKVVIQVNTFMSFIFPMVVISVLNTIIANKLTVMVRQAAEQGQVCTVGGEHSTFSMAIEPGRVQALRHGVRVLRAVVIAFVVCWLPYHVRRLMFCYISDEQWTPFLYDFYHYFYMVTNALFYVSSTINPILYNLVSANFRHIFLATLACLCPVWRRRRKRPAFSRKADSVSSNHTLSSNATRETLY

[22] = tested on: BxPC-3; experiment: Cell Titer-Glo viability, Pancreatic adenocarcinoma; format: cell-based
Method: (§1) OGM2 kills wide variety of cancer cell types. Cell sensitivity can be classified in to Very Sensitive (LC50<2 μM), Sensitive (LC50=2 to 10 μM), Mildly Sensitive (LC50>10 μM), and Refractory (no killing at 10 μM). The listed established cell were incubated with OGM2 at 2 μM or 10 μM for 72 hours under standard cell culture conditions, and relative cell number was assessed using Cell Titer-Glo Luminescent Cell Viability Assay (Promega™) following the manufacturer's instructions. Luminescence was determined using a Cytation 5 reader and Gen5 software package (BioTek™).
(§2) Cancer cells, which are very sensitive to killing by OGM2 (LCs <2 μM), with reported mRNA expression of GPR68 and the related proton sensing receptor GPR4. LC50's (concentrations causing 50% lethality) were determined using CellTiter-Glo (Promega™, G7570). Cells were plated in 12-well plates (CELLTREAT Scientific Products, 229112) in 1 ml of DMEM with high glucose, GlutaMAX, HEPES, or RPMI 1640 with Penicillin-Streptomycin (ThermoFisher™, 10564029, 11875119 and 15140122) and 10% FBS. Cells were incubated overnight at 37° C. in 5% CO2. Then 1 mL of fresh media was added with DMSO, OGM, or positive control (Erastin; APExBIO Technology, LLC, B1524) and cells incubated for 3 days. On the third day, all media was removed, cells were rinsed with 1×PBS, PBS was removed, and 200 μL of 1× Passive Lysis Buffer (Promega™, E1941) was added to each well. […]. Subsequently, 20 μL of lysate was added to 100 μL CellTiter-Glo™ reagent on a LUMITRAC 200 plate (Greiner™ bio-one, 82050-726). Plates were briefly spun down and read on a GloMax-Multi Detection System (Promega™).
(§3) The cells listed in the tables above were incubated with OGM2 at 2 μM or 10 μM for 72 hours under standard cell culture conditions, and relative cell number was assessed using Cell Titer-Glo Luminescent Cell Viability Assay (Promega™) following the manufacturer's instructions. Luminescence was determined using a Cytation 5 reader and Gen5 software package (BioTek™). RNA expression of GPR68 and GPR4 in the corresponding cancer cell lines are listed, according to the publicly available The Human Protein Atlas version 22.0 and Ensembl version 103.38 (see proteinatlas.org). The consensus normalized expression value (“nTPM”=normalize transcript per million) was calculated as the maximum nTPM value for each gene in the two data sources.

[23] = tested on: Panc02; experiment: as above; format: cell-based
Method: as §1, §2, §3

## CCc1ccc2c(c1)C1(NN=C(c3cccc4ccccc34)S1)C(=O)N2 (centres unmarked) [OGM1, 5-ethyl-5′-naphthalen-1-ylspiro[1H-indole-3,2′-3H-1,3,4-thiadiazole]-2-one]
[1]
  remaining binding at 10 µM: 83%
[2]
  remaining binding at 10 µM: 100%
[3]
  remaining binding at 10 µM: 78%
[4]
  remaining binding at 10 µM: 100%
[5]
  remaining binding at 10 µM: 100%
[6]
  remaining binding at 10 µM: 100%
[7]
  remaining binding at 10 µM: 88%
[8]
  remaining binding at 10 µM: 100%
[9]
  remaining binding at 10 µM: 91%
[10]
  remaining binding at 10 µM: 100%
[11]
  remaining binding at 10 µM: 95%
[12]
  remaining binding at 10 µM: 50%
[13]
  remaining binding at 10 µM: 100%
[14]
  remaining binding at 10 µM: 100%
[15]
  remaining binding at 10 µM: 90%
[16]
  remaining binding at 10 µM: 100%
[17]
  remaining binding at 10 µM: 99%
[18]
  remaining binding at 10 µM: 80%
[19]; 10 uM
  Antagonism: 7.7
[19]; 12.5 uM
  Agonism: 0.9
[20]; 10 uM
  Antagonism: 4.6
[20]; 12.5 uM
  Agonism: −0.1
[21]; 10 uM
  Antagonism: 1.6
[21]; 12.5 uM
  Agonism: 1

## CCc1ccc2c(c1)C1(NN=C(c3ccccc3)S1)C(=O)N2 (centres unmarked) [OGM2]
[22]
  Class: Mildly
[22]; 72 hours
  % Survival 2 μM OGM: 81.5%
  % Survival 10 μM OGM: 83.8%
[22]; Homo sapiens, BXPC-3, 72 hours, read-out: LC50 (the source's name)
  CC50: > 10 µM
[23]
  Class: Sensitive (Sensitive (LC50=2 to 10 μM))
[23]; 72 hours
  % Survival 2 μM OGM: 72.5%
  % Survival 10 μM OGM: 40.5%
[23]; Mus musculus, Panc02, 72 hours, read-out: LC50 (the source's name)
  CC50: 2 to 10 µM
